We go through 5 cell lines from the supplement of paper PMC10307832.

What all share (assay): relative viability (nuclei count vs DMSO), 5 days (fraction); higher = more cells survive
Compound in the experiment “BI-D1870 + Bortezomib”: CC(C)CCN1c2nc(Nc3cc(F)c(O)c(F)c3)ncc2N(C)C(=O)C1C [BI-D1870] + CC(C)C[C@H](NC(=O)[C@H](Cc1ccccc1)NC(=O)c1cnccn1)B(O)O [Bortezomib] (partner 0.002 µM)
In outline:
(§1)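 One day after seeding in 1536-well plates, lung cancer cell lines were dosed by pin tool. Dosing was either single-drug or a fixed anchor-drug dose plus five library-drug doses (not always all listed) in √10 steps. After 5 days, nuclei were stained in one fix-and-stain step and counted on 4× images, and relative viability is the nuclei count of treated wells over that of vehicle wells, given as the median of duplicate plates.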

Compound in the experiment “Zebularine + Bortezomib”: O=c1ncccn1[C@@H]1O[C@H](CO)[C@@H](O)[C@H]1O [Zebularine] + CC(C)C[C@H](NC(=O)[C@H](Cc1ccccc1)NC(=O)c1cnccn1)B(O)O [Bortezomib] (partner 0.002 µM)
The procedure, abridged: as §1

Compound in the experiment “Zebularine + AZD7762”: O=c1ncccn1[C@@H]1O[C@H](CO)[C@@H](O)[C@H]1O [Zebularine] + NC(=O)Nc1cc(-c2cccc(F)c2)sc1C(=O)N[C@H]1CCCNC1 [AZD7762] (partner 0.2 µM)
The procedure, abridged: as §1

Compound in the experiment “BI-D1870 + Crizotinib”: CC(C)CCN1c2nc(Nc3cc(F)c(O)c(F)c3)ncc2N(C)C(=O)C1C [BI-D1870] + C[C@@H](Oc1cc(-c2cnn(C3CCNCC3)c2)cnc1N)c1c(Cl)ccc(F)c1Cl [Crizotinib] (partner 1 µM)
The procedure, abridged: as §1

Regarding NCI-H23, the relative viability with BI-D1870 + Bortezomib (first compound 0.04 µM) came to 1.44; with BI-D1870 + Bortezomib (first compound 0.1265 µM), 0.85; with BI-D1870 + Bortezomib (first compound 0.4 µM) it was 1.16; in the experiment with BI-D1870 + Bortezomib (first compound 1.265 µM) it was 1.03; with BI-D1870 + Bortezomib (first compound 4 µM) it was 0.529; with Zebularine + Bortezomib (first compound 1 µM), 1.15. Besides, the relative viability in the experiment with Zebularine + Bortezomib (first compound 3.162 µM) was found to be 1.06; in the experiment with Zebularine + Bortezomib (first compound 31.62 µM), 0.918; with Zebularine + Bortezomib (first compound 100 µM), 0.783; with Zebularine + AZD7762 (first compound 1 µM), 0.3; in the experiment with Zebularine + AZD7762 (first compound 3.162 µM), 0.375; with Zebularine + AZD7762 (first compound 31.62 µM), 0.23. For the same cell line, the relative viability is 0.254 with Zebularine + AZD7762 (first compound 100 µM); 0.527 with BI-D1870 + Crizotinib (first compound 0.04 µM); 0.424 in the experiment with BI-D1870 + Crizotinib (first compound 0.1265 µM); 0.509 in the experiment with BI-D1870 + Crizotinib (first compound 0.4 µM); 0.667 with BI-D1870 + Crizotinib (first compound 1.265 µM); 0.559 with BI-D1870 + Crizotinib (first compound 4 µM).
Turning to LCLC-97TM1, the relative viability with BI-D1870 + Bortezomib (first compound 0.04 µM) came out at 0.833; with BI-D1870 + Bortezomib (first compound 0.1265 µM) it was 0.693; in the experiment with BI-D1870 + Bortezomib (first compound 0.4 µM) it was 0.734; in the experiment with BI-D1870 + Bortezomib (first compound 1.265 µM), 0.957; with BI-D1870 + Bortezomib (first compound 4 µM), 0.372; with Zebularine + Bortezomib (first compound 1 µM), 1.41. The relative viability in the experiment with Zebularine + Bortezomib (first compound 3.162 µM) amounted to 0.627; in the experiment with Zebularine + Bortezomib (first compound 10 µM), 0.473; with Zebularine + Bortezomib (first compound 31.62 µM) it was 0.253; with Zebularine + Bortezomib (first compound 100 µM), 0.217; with Zebularine + AZD7762 (first compound 1 µM) it was 0.127; in the experiment with Zebularine + AZD7762 (first compound 3.162 µM), 0.216. For the same cell line, the relative viability in the experiment with Zebularine + AZD7762 (first compound 10 µM) stood at 0.142; with Zebularine + AZD7762 (first compound 31.62 µM), 0.134; in the experiment with Zebularine + AZD7762 (first compound 100 µM), 0.13; with BI-D1870 + Crizotinib (first compound 0.04 µM), 0.361; with BI-D1870 + Crizotinib (first compound 0.1265 µM), 0.361; with BI-D1870 + Crizotinib (first compound 0.4 µM), 0.36. Besides, the relative viability stood at 0.57 in the experiment with BI-D1870 + Crizotinib (first compound 1.265 µM) and 0.312 with BI-D1870 + Crizotinib (first compound 4 µM).
On to EPLC-272H, for which the relative viability with BI-D1870 + Bortezomib (first compound 0.04 µM) worked out at 0.887; with BI-D1870 + Bortezomib (first compound 0.1265 µM), 0.99; in the experiment with BI-D1870 + Bortezomib (first compound 0.4 µM), 1.01; with BI-D1870 + Bortezomib (first compound 1.265 µM) it was 1.1; in the experiment with BI-D1870 + Bortezomib (first compound 4 µM), 0.772; with Zebularine + Bortezomib (first compound 1 µM), 1. Further, the relative viability with Zebularine + Bortezomib (first compound 31.62 µM) was 1.07; with Zebularine + Bortezomib (first compound 100 µM), 0.836; in the experiment with Zebularine + AZD7762 (first compound 1 µM), 0.171; with Zebularine + AZD7762 (first compound 10 µM) it was 0.183; in the experiment with Zebularine + AZD7762 (first compound 31.62 µM) it was 0.192; with Zebularine + AZD7762 (first compound 100 µM) it was 0.24. For the same cell line, the relative viability with BI-D1870 + Crizotinib (first compound 0.04 µM) turned out to be 0.926; with BI-D1870 + Crizotinib (first compound 0.1265 µM) it was 0.86; in the experiment with BI-D1870 + Crizotinib (first compound 0.4 µM) it was 0.904; with BI-D1870 + Crizotinib (first compound 1.265 µM), 0.972; with BI-D1870 + Crizotinib (first compound 4 µM), 0.931.
Take NCI-H1915: the relative viability turned out to be 1.04 in the experiment with BI-D1870 + Bortezomib (first compound 0.04 µM); 0.951 with BI-D1870 + Bortezomib (first compound 0.1265 µM); 0.905 with BI-D1870 + Bortezomib (first compound 0.4 µM); 1.03 with BI-D1870 + Bortezomib (first compound 1.265 µM); 0.879 with BI-D1870 + Bortezomib (first compound 4 µM); 1.11 with Zebularine + Bortezomib (first compound 1 µM). In addition, the relative viability was found to be 0.913 with Zebularine + Bortezomib (first compound 3.162 µM); 0.433 with Zebularine + Bortezomib (first compound 10 µM); 1.09 in the experiment with Zebularine + Bortezomib (first compound 31.62 µM); 0.97 with Zebularine + Bortezomib (first compound 100 µM); 0.788 with Zebularine + AZD7762 (first compound 1 µM); 0.7 in the experiment with Zebularine + AZD7762 (first compound 3.162 µM). Also, the relative viability with Zebularine + AZD7762 (first compound 10 µM) stood at 0.616; with Zebularine + AZD7762 (first compound 31.62 µM), 0.728; in the experiment with Zebularine + AZD7762 (first compound 100 µM) it was 0.671; with BI-D1870 + Crizotinib (first compound 0.04 µM), 0.932; with BI-D1870 + Crizotinib (first compound 0.1265 µM), 0.835; with BI-D1870 + Crizotinib (first compound 0.4 µM), 0.962. Also, the relative viability in the experiment with BI-D1870 + Crizotinib (first compound 1.265 µM) worked out at 0.935; in the experiment with BI-D1870 + Crizotinib (first compound 4 µM), 0.881.
For NCI-H2405, the relative viability with BI-D1870 + Bortezomib (first compound 0.04 µM) was 1.07; with BI-D1870 + Bortezomib (first compound 0.1265 µM), 0.89; in the experiment with BI-D1870 + Bortezomib (first compound 0.4 µM), 0.959; with BI-D1870 + Bortezomib (first compound 1.265 µM), 1.02; with BI-D1870 + Bortezomib (first compound 4 µM) it was 1.02; with Zebularine + Bortezomib (first compound 1 µM), 1.03. Further, the relative viability amounted to 0.801 with Zebularine + Bortezomib (first compound 3.162 µM); 0.778 in the experiment with Zebularine + Bortezomib (first compound 10 µM); 0.969 in the experiment with Zebularine + Bortezomib (first compound 31.62 µM); 0.565 in the experiment with Zebularine + Bortezomib (first compound 100 µM); 0.798 in the experiment with Zebularine + AZD7762 (first compound 1 µM); 0.792 with Zebularine + AZD7762 (first compound 3.162 µM). Moreover, the relative viability with Zebularine + AZD7762 (first compound 10 µM) amounted to 0.545; with Zebularine + AZD7762 (first compound 31.62 µM), 0.875; in the experiment with Zebularine + AZD7762 (first compound 100 µM) it was 0.688; with BI-D1870 + Crizotinib (first compound 0.04 µM), 0.952; in the experiment with BI-D1870 + Crizotinib (first compound 0.1265 µM), 0.863; with BI-D1870 + Crizotinib (first compound 0.4 µM) it was 0.836. Besides, the relative viability worked out at 0.94 with BI-D1870 + Crizotinib (first compound 1.265 µM) and 0.795 in the experiment with BI-D1870 + Crizotinib (first compound 4 µM).
